Where a name gives a salt, the structure may show the parent alone. Read-outs that look alike come from different tables or passages of the source.
Key:
[1] = system: rats fed with cholesterol; experiment: in vivo antihyperlipoproteinemic test, rats fed cholesterol fodder for 7 days (Table 1); parameters: species or system Whistar hannover male rats; settings: rat; for change in vivo at 30 mg/kg / change in vivo at 100 mg/kg: po; for change in vivo at 30 mg/kg: 30.0 mg/kg p.o.; for change in vivo at 100 mg/kg: 100.0 mg/kg p.o.
Source text: (§1) Whistar hannover male rats weighing 140-160 g were fed for 7 days with a rat fodder supplemented with 1.5% of cholesterol, 0.5% of sodium cholate and 5% of solid fat. (Schurr, P. E.; Schultz, J. R., Day, D. E.; Atherosclerosis Drug Discovery Ed.: C. E. Day, Plenum, New York 215 (1976) and Acta Pharm. Hung., 49, 182. (1979) During this time the total cholesterol level of the serum increased with 200-250% compared to the normal level, while the amount of the HDL chloesterol diminished by 45-50%. Groups consisting of six animals were formed. The compounds of the invention were administered orally starting on the fourth day of the addition of the cholesterol fodder and it was continued by the end of the experiments, by the seventh day, in one or two doses. Then after a 18 hour starving the animals were bled to death under etheric narcosis on the 8th day. The blood samples were centrifuged and the serum total cholesterol and the HDL cholesterol were determined by Backmann enzymatic test, while the triglyceride concentration of the serum was determined by Van Handel's method (J. Lab.: Clin. Med. 41, 486 (1953). The amount of the LDL+VLDL was measured by manganese precipitation turbidimetrically (Schurr, P. E., Schulz, J. R., Day, C. E.: Atherosclerosis Drug Discovery Ed.: C. E. Day, Plenum Press, New York 215 (1976). The antiaggreagtion activity was measured in vitro on human plasm being rich in thrombocytes by a Chrono-log aggregometer. The aggregation was induced by ADP, adrenaline, collagen and arachidonic acid. […]. The lipidperoxidation was induced by N-ethyl-alenicimide (Arzneimittel-Forschung 29, 981 (1979).

[2] = system: rats with the cholesterol diet; experiment: in vivo test in rats with the cholesterol diet, 10 day treatments (Table 2); settings: rat, 10 day treatment, 100.0 mg/kg p.o.
Description: as §1, with “Whistar hannover male rats weighing 140-160 g were fed for 7 days with a rat fodder supplemented with 1.5% of cholesterol, 0.5% of sodium cholate and 5% of solid fat.” left out, “The compounds of the invention were administered orally starting on the fourth day of the addition of the cholesterol fodder and it was continued by the end of the experiments, by the seventh day, in one or two doses.” left out
The affect of compound no. 0202479 to the rats with the
cholesterol diet in 10 day treatments

platelet aggregation = settings: cited from earlier work
[3] = read-out: HDL cholesterol % change
[4] = read-out: serum cholesterol change
[5] = serum, read-out: triglyceride change

| SMILES | change in vivo at 30 mg/kg [1, 3] [%] | change in vivo at 30 mg/kg ([1]; read-out: LDL + VLDL % change) [%] | change in vivo at 30 mg/kg [1, 4] [%] | change in vivo at 100 mg/kg [1, 3] [%] | change in vivo at 100 mg/kg ([1]; read-out: LDL + VLDL % change) [%] | change in vivo at 100 mg/kg [1, 4] [%] | change in vivo at 30 mg/kg [1, 5] [%] | change in vivo at 100 mg/kg [1, 5] [%] | decrease of the total serum cholesterol level ([1]; 100 mg/kg) | increase of HDL(-cholesterol) ([1]; 100 mg/kg) [%] | other results |
| --- | --- | --- | --- | --- | --- | --- | --- | --- | --- | --- | --- |
| CC(=O)CCn1c(=S)[nH]c2cc(Cc3ccccc3)ccc21 [compound 0200427, 1-(5-Benzyl-2-thioxo-1-benzimidazolyl)-3-butanone] | -17.7 | -58.2 | -45.5 | -12.1 | -54.4 | -51.7 | -63.5 | -67.2 | 51.7% |  | HDL level, in words ([1]; 100 mg/kg): decreased the HDL level, though in smaller extent; decrease of the LDL+VLDL level ([1]; 100 mg/kg): 54.4%; decrease of the serum triglyceride ([1]; 100 mg/kg): 67.2%; overall lipid/lipoprotein activity, in words ([1]; 100 mg/kg): Especially great serum lipid decreasing activity |
| CC(=O)CSc1nc2ccc(Cc3ccccc3)cc2[nH]1 [compound 0202002, 1-((5-benzyl-2-benzimidazolyl)thio)-2-propanone] | -16.9 | -0.38 | -22 | -16.9 | -55.8 | -68 | 27.8 | -29.4 |  |  |  |
| CCOC(=O)C(C)(C)Oc1ccc(Cl)cc1 [Clofibrate, 2-(4-chlorophenoxy)isobutyric ethyl ester, reference compound] |  |  |  | -20 | -11.2 | -24.7 |  | -20 |  |  | Serum cholesterol percentile change [2]: -23.0 percentile change; HDL cholesterol percentile change ([2]; ** P 0.01): -7.4 percentile change; LDL + VLDL percentile change ([2]; ** P 0.01): -37.9 percentile change; triglyceride percentile change ([2]; ** P 0.01): -24.5 percentile change; IC50 (platelet aggregation; ADP induced aggregation, read-out: medium inhibitory concentration, ADP): 100 µM; IC50 (platelet aggregation; adrenaline induced aggregation, read-out: medium inhibitory concentration, Adrenaline): 700 µM; IC50 (platelet aggregation; arachidonic acid induced aggregation, read-out: medium inhibitory concentration, Arachidonic acid): 5000 µM; IC50 (platelet aggregation; collagen induced aggregation, read-out: medium inhibitory concentration, Collagene): 1700 µM; inhibition of aggregation induced by arachidonic acid, in words (platelet aggregation; compared with compound at 250 μM): ineffective |
| CC(=O)CCn1c(=S)n(CCC(C)=O)c2cc(Cc3ccccc3)ccc21 [compound 0200058, 1,3-bis(3-Oxo-butyl)-5-benzyl-2-thioxo-benzimidazole] | 30 | -19.4 | -14 | 44.9 | -9.4 | -10.6 | 1 | 12.8 |  | 45 | total cholesterol of the serum, in words ([1]; 100 mg/kg): smaller decrease of the level of the total cholesterol of the serum |
| CCOC(=O)CC(=O)CSc1nc2ccc(Cc3ccccc3)cc2[nH]1 [compound 0203232, 4-[(5-Benzyl-2-benzimidazolyl)thio]acetoacetic acid ethylester hydrochloride] | 6.8 | -27.6 | -32.1 | 6.8 | -45.9 | -48.6 | 29.3 | -18.3 |  |  |  |
| OCCSc1nc2ccc(Cc3ccccc3)cc2[nH]1 [compound 0202377, 5-Benzyl-2-(2-hydroxyethylthio)-benzimidazole] | -13.5 | 1 | -36.5 | 61.2 | -14.5 | -52.4 | 58 | 116 | 52.4 | 61.2 | LDL+VLDL level, in words ([1]; 100 mg/kg): decreased is smaller extent |
| C#CCSc1nc2ccc(Cc3ccccc3)cc2[nH]1 [compound 0202647, 5-Benzyl-2-(2-propinylthio)-benzimidazole] |  |  |  |  |  |  |  |  | 34.5 | 49 | decrease of the LDL+VLDL level ([1]; 100 mg/kg): 41.5; overall lipid/lipoprotein activity, in words ([1]; 100 mg/kg): especially excellent activity |
| Br.C=CCSc1nc2ccc(Cc3ccccc3)cc2[nH]1 [compound 0202154, 5-Benzyl-2-(2-propenylthio)-benzimidazole hydrobromide] | 27 | -38.1 | -34.5 | 71.3 | -57.5 | -49.3 | -30 | -25.3 | 49.3% | 71.3 | decrease of the LDL+VLDL level ([1]; 100 mg/kg): 57.5%; decrease of the serum triglyceride ([1]; 100 mg/kg): 25.3%; overall lipid/lipoprotein activity, in words ([1]; 100 mg/kg): very effective |
| O=C(O)CC(Sc1nc2ccc(Cc3ccccc3)cc2[nH]1)C(=O)O (stereo not drawn) [compound 0200131, S-(5-Benzyl-2-benzimidazolyl)-2-thio-succinic acid] | 10 | -17.5 | -17.4 | 57 | -5.9 | -16.9 | -18.8 | -25.4 |  |  |  |
| OCCCSc1nc2ccc(Cc3ccccc3)cc2[nH]1 [compound 0202367, 5-Benzyl-2-(3-hydroxypropylthio)-benzimidazole] | 47.1 | -45.2 | -37.4 | 26 | -50.7 | -42.6 | -19 | -16.1 |  |  |  |
| O=C(O)CC(Sc1nc2ccc(C(=O)c3ccccc3)cc2[nH]1)C(=O)O (stereo not drawn) [compound 0200086, S-(5-Benzoyl-2-benzimidazolyl)-2-thio-succinic acid] | -35 | -22.1 | -26 | 19.4 | -24.8 | -35.4 | -24.9 | -27.2 |  |  |  |

— patent publication US4814329A, “Antihyperlipoproteinemic 5-substituted sulfur-containing benzimidazole derivatives” (Richter Gedeon Vegyeszeti Gyar R.T., priority 1985, dated 1989)
